In patent US12215215B2, “Stabilizer compositions and methods for using same for protecting polymeric organic materials from UV light and thermal degradation” (Cytec Industries Inc., priority 2014, dated 2025):

Assay: Solubility of triazine UV absorbers in cyclohexane at room temperature
Format: physicochemical
Settings: room temperature (20° C.)
Description: UV stabilizers and co-additives. […] Solubility measurements of various orthohydroxyphenyl triazines in cyclohexane (substitute for polypropylene) conducted at room temperature indicate that such triazines having a solubility greater than 0.04 wt. % can be used in certain embodiments as the UV absorber of the stabilizer compositions described herein.

Row | Solubility of triazines in Cyclohexane at room temperature | SMILES
1 | >0.04% weight % | CCCCCCCCOc1ccc(-c2nc(-c3ccc(OCCCCCCCC)cc3O)nc(-c3ccc(OCCCCCCCC)cc3O)n2)c(O)c1 [Formulation P-800, 2,4,6-tris(2-hydroxy-4-octyloxy-phenyl)-1,3,5-triazine]
2 | 1.4 ± 0.2 weight % | CCCCCCCCOc1ccc(-c2nc(-c3ccc(C)cc3C)nc(-c3ccc(C)cc3C)n2)c(O)c1 [UV-1164, 2-[4,6-bis(2,4-dimethylphenyl)-1,3,5-triazin-2-yl]-5-(octyloxy) phenol]
